Test results: article PMC5958214, “Chloroplastic Serine Hydroxymethyltransferase From Medicago truncatula: A Structural Characterization” (Frontiers in Plant Science, 2018)
One block for each compound: values may come before it.

How the values were obtained:
[1] = biological target: T1, MtSHMT3 (chloroplastic serine hydroxymethyltransferase) (Medicago truncatula, UniProt G7ILW0); assay: X-ray crystallography, […] A; type: binding
T1 construct: gene MTR_2g018290; residues 82-533, targeting peptide removed (N-truncated at F82, begins FLDYGLSEA); His6-TEV tag cut, Ser-Asn-Ala linker left; E. coli BL21 Gold, pMCSG68; homotetramer, ~197 kDa theoretical; active site shared within tight dimer
T1 sequence (G7ILW0 entry or part of it): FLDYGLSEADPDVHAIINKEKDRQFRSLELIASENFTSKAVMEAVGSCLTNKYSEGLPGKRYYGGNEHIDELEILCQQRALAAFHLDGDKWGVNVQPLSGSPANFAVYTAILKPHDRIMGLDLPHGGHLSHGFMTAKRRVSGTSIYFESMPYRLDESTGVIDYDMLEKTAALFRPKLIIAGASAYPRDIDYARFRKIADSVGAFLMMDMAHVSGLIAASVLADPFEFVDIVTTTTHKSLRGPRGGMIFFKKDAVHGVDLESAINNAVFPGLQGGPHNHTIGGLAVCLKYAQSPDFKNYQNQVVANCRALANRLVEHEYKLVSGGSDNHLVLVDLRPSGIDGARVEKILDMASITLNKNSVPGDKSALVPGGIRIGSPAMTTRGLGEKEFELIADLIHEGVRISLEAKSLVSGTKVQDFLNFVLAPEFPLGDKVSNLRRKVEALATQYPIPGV

[2] = biological target: chloroplast-targeted serine hydroxymethyltransferase from Medicago truncatula (MtSHMT3), residues 82-533 (Medicago truncatula); assay: crystal structure; three non-isomorphous crystal forms (holo/apo in Tacsimate pH 7.0; Ser-soaked in MES pH 6.5, PEG 3350, ammonium acetate; selenourea-soaked); assemblies analysed with PISA
[3] = biological target: chloroplast-targeted serine hydroxymethyltransferase from Medicago truncatula (MtSHMT3), residues 82-533 (Medicago truncatula); assay: SEC; HiLoad Superdex 200 16/60; 25 mM Hepes-NaOH pH 7.5, 100 mM KCl, 50 mM NaCl, 1 mM TCEP; standard curve from thyroglobulin, gamma-globulin, ovalbumin and myoglobin
[4] = biological target: T1, MtSHMT3 (chloroplastic serine hydroxymethyltransferase); assay: X-ray crystallography, […] A; type: binding; details: covalent; internal aldimine (Schiff base) with K318; full occupancy in chains A and B; crystals from 55% Tacsimate pH 7.0; PLP from expression culture

Compound: N[C@@H](CO)C(=O)O [Ser, L-serine]
X-ray crystallography, 1.91 A ([1]; covalent, PLP-Ser external aldimine in chains A and D, crystals soaked with 200 mM Ser for 2 h, pH 6.5, no tetrahydrofolate): PLP-Ser external aldimine (chains A and D)

stoichiometry N [2]: 4
stoichiometry N [3]: 4
Compound: chloroplast-targeted serine hydroxymethyltransferase from Medicago truncatula (MtSHMT3), residues 82-533 (enzyme)

Compound: NCC(=O)O [Gly, glycine]
X-ray crystallography, 1.91 A ([1]; Ser-soaked crystal, covalent PLP-Gly external aldimine in chains B and F, free Gly with PLP internal aldimine in chains E and H, no tetrahydrofolate): PLP-Gly external aldimine (chains B and F), and PLP internal aldimine with free Gly

Compound: Cc1ncc(COP(=O)(O)O)c(C=O)c1O [PLP, pyridoxal 5′-phosphate]
X-ray crystallography, 1.74 A [4]: two protein chains (A and B) contain the PLP bound as a Schiff base internal aldimine
